Results from paper PMC13372822 (The EMBO Journal, 2026).
Positions count from the first letter of the chain named.

Key:
Type in all cases: cell-based
SUCR1 = molecular target: T1, SUCR1 (Homo sapiens, UniProt Q9BXA5); test: Calcium mobilization assay, wild-type SUCR1 in HEK293 stably expressing Gα16; details: for activation of SUCR1: in words;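 for Emax: percent of the maximal response to succinate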
T1 construct: The full-length human SUCR1 and mutations were fused after the HA signal peptide and Flag tag; HA signal peptide (N); Flag (N); expressed in transfected cells; host or cells: HEK293 stably expressing Gα16 (pcDNA6.0, transient electroporation)
T1 sequence (Q9BXA5 1-334): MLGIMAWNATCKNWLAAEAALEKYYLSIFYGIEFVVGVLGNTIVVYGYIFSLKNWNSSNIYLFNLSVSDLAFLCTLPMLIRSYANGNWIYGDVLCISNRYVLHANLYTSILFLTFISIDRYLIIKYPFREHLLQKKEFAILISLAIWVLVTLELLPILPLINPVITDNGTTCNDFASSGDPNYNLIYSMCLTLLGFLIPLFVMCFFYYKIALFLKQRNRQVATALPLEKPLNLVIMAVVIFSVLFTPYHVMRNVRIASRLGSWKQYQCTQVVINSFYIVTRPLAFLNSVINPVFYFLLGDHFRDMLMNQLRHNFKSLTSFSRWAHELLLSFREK
Procedure: (§1) The full-length human SUCR1 and mutations were fused after the HA signal peptide and Flag tag. The constructs were cloned into pcDNA6.0 vector for HEK293 system.
(§2) HEK293 cells were obtained from ATCC (Manassas, VA, USA) and cultured in DMEM supplemented with 10% (v/v) FBS, 100 mg/L penicillin, and 100 mg/L streptomycin in 5% CO2 at 37 °C. For transient transfection, ~2.5 × 10^6 cells were mixed with 2 µg plasmids in 200 µL transfection buffer, and electroporation was carried out with a Scientz-2C electroporation apparatus (Scientz Biotech, Ningbo, China). The experiments were carried out 24 h after transfection. HEK293 cell lines stably expressing Gα16 were constructed by our laboratory.
(§3) For OXGR1, plasmids were transfected into HEK293 (other receptors were transfected into HEK293 stably expressing Gα16) and seeded at a density of 4 × 10^4 per well into 96-well culture plates and incubated for 24 h at 37 °C in 5% CO2. The next day, Cells were incubated with 2 μM/L Fluo-4 AM in HBSS supplemented with 5.6 mM/L D-glucose and 250 μM/L sulfinpyrazone at 37 °C for 45 min. […] Three independent measurements were repeated, i.e., three different transfections, with three technical replicates performed for each experiment. EC50 and Emax values for each curve were calculated by Prism 8.0 software (GraphPad Software).

[1] = molecular target: T2, SUCR1 mutants (variant named in the endpoint) (Homo sapiens, UniProt Q9BXA5, I157M); test: Calcium mobilization assay, SUCR1 mutants in HEK293 stably expressing Gα16;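 for Emax: percent of the maximal response to succinate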
T2 construct: The full-length human SUCR1 and mutations were fused after the HA signal peptide and Flag tag; HA signal peptide (N); Flag (N); expressed in transfected cells; host or cells: HEK293 stably expressing Gα16 (pcDNA6.0, transient electroporation)
T2 sequence (Q9BXA5 1-334 I157M): T1 sequence (Q9BXA5 1-334) with I157M
Procedure: as §1, §2, §3

[2] = molecular target: T3, SUCR1 mutants (variant named in the endpoint) (Homo sapiens, UniProt Q9BXA5, Y248F); test: as above
T3 construct: The full-length human SUCR1 and mutations were fused after the HA signal peptide and Flag tag; HA signal peptide (N); Flag (N); expressed in transfected cells; host or cells: HEK293 stably expressing Gα16 (pcDNA6.0, transient electroporation)
T3 sequence (Q9BXA5 1-334 Y248F): T1 sequence (Q9BXA5 1-334) with Y248F
Procedure: as §1, §2, §3

FFAR3 = molecular target: T4, FFAR3 (Homo sapiens, UniProt O14843); test: Calcium mobilization assay, FFAR3 in HEK293 stably expressing Gα16; details: in words; related receptor
T4 construct: expressed in transfected cells; host or cells: HEK293 stably expressing Gα16
T4 sequence (O14843 1-346): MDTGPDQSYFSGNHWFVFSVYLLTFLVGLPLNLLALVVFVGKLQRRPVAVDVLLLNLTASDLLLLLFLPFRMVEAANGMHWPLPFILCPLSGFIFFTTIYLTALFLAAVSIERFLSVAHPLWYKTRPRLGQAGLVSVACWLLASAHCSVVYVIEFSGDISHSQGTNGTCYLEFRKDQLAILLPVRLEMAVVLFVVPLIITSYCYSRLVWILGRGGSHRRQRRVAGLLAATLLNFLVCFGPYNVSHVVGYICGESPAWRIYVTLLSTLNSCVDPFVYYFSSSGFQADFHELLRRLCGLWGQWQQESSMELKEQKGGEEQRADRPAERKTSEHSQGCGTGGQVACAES
Procedure: as §2, §3

[3] = molecular target: T5, SUCR1 mutants (variant named in the endpoint) (Homo sapiens, UniProt Q9BXA5, F285A/L102F); test: Calcium mobilization assay, SUCR1 mutants in HEK293 stably expressing Gα16;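 for Emax: percent of the maximal response to succinate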
T5 construct: The full-length human SUCR1 and mutations were fused after the HA signal peptide and Flag tag; HA signal peptide (N); Flag (N); expressed in transfected cells; host or cells: HEK293 stably expressing Gα16 (pcDNA6.0, transient electroporation)
T5 sequence (Q9BXA5 1-334 L102F/F285A): T1 sequence (Q9BXA5 1-334) with L102F, F285A
Procedure: as §1, §2, §3

Compound	activation of SUCR1 (SUCR1)	Emax ([1]; HEK293, SUCR1 I157M, Emax relative to the SUC) [%]	Emax ([2]; HEK293, SUCR1 Y248F, Emax relative to the SUC) [%]	activation of FFAR3 (FFAR3)	EC50 ([3]; SUCR1 F285A-L102F) [µM]	EC50 ([2]; SUCR1 Y248F) [µM]	Emax (SUCR1; HEK293) [%]	Emax ([3]; HEK293) [%]	Emax ([1]; HEK293) [%]
C=C(CC(=O)O)C(=O)O [ITA, itaconate]	only minimal activation	-0.44 ± 1	15 ± 2	no detectable activation	–	–	–	–	–
O=C(O)CCC(=O)O [SUC, succinate]	–	–	–	–	460 ± 80	810 ± 90	–	–	–
O=C(O)CCC(=O)C(=O)O [AKG, α-ketoglutarate]	no cross-reactivity	–	–	no cross-reactivity	–	–	3.5 ± 3	5.5 ± 1	0.43 ± 0.8
